According to EP4667458A1 (Kanaph Therapeutics Inc., priority 2023, dated 2024):

Molecular target: T1, KRAS^G12C::SOS1 (Homo sapiens, UniProt Q07889)
T1 sequence (Q07889 1-1333): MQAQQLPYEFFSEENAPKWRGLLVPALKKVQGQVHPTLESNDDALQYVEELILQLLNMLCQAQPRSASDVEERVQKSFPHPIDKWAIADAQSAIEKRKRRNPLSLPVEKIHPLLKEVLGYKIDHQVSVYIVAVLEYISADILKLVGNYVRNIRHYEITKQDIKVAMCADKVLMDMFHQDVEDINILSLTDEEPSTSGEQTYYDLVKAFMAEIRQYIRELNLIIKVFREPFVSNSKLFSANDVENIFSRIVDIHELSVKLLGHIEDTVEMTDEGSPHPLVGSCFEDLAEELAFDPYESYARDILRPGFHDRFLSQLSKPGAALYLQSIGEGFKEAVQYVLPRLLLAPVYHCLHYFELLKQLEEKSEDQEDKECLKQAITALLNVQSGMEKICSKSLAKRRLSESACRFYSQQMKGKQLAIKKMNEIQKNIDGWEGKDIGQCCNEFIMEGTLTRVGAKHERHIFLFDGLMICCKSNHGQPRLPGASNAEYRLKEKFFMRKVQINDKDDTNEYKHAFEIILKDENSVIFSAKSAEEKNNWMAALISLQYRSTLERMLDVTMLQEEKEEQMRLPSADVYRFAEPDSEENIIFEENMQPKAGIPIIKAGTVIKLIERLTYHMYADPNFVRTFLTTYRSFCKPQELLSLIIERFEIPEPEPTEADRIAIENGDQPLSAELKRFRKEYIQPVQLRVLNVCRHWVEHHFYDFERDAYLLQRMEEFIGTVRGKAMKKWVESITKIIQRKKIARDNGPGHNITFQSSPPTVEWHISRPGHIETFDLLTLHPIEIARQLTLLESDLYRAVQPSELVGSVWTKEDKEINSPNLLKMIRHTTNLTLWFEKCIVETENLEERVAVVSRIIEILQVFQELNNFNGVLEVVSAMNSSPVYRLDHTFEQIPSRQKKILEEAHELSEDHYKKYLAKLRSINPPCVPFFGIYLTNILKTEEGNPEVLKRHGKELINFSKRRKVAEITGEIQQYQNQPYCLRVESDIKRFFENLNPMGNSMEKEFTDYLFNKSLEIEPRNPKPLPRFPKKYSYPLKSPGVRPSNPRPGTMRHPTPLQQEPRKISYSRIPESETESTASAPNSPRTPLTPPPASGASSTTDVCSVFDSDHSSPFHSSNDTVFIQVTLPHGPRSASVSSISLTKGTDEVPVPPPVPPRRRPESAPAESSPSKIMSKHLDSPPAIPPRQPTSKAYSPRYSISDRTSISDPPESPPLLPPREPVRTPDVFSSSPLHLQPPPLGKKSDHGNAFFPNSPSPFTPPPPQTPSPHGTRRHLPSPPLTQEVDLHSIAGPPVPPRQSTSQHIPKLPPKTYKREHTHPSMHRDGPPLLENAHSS
Assay: KRAS G12C::SOS1 protein-protein interaction (PPI) inhibition assay (HTRF binding kit)

Row | Structure (SMILES) | IC50 [nM]
1 | C[C@@H](NC(=O)c1ccc(=O)n(-c2ccccc2F)n1)c1cc(N)cc(C#N)c1F [Example 216, N-[(1R)-1-(5-amino-3-cyano-2-fluoro-phenyl)ethyl]-1-(2-fluorophenyl)-6-oxo-pyridazine-3-carboxamide] | 1000 to 10000
2 | C[C@@H](NC(=O)c1ccc(=O)n(-c2cccc(-c3cccc(=O)n3C)c2)n1)c1cc(N)cc(C(F)(F)F)c1 [Example 351, N-[(1R)-1-[3-amino-5-(trifluoromethyl)phenyl]ethyl]-1-[3-(1-methyl-6-oxo-2-pyridyl)phenyl]-6-oxo-pyridazine-3-carboxamide] | < 1000
3 | CNCc1ccc(Cl)cc1-c1ccc([C@@H](C)NC(=O)c2ccc(=O)n(C3CCOCC3)n2)s1 [Example 411] | < 1000
4 | CNCc1sccc1-c1cccc([C@@H](C)NC(=O)c2ccc(=O)n(-c3ccccc3F)n2)c1 [Example 291, 1-(2-fluorophenyl)-N-[(1R)-1-[3-[2-(methylaminomethyl)-3-thienyl]phenyl]ethyl]-6-oxo-pyridazine-3-carboxamide] | < 1000
5 | C[C@@H](NC(=O)c1ccc(=O)n(-c2cccc(-c3cncn3C)c2)n1)c1cc(N)cc(C(F)(F)F)c1 [Example 320, N-[(1R)-1-[3-amino-5-(trifluoromethyl)phenyl]ethyl]-1-[3-(3-methylimidazol-4-yl)phenyl]-6-oxo-pyridazine-3-carboxamide] | < 1000
6 | C[C@@H](NC(=O)c1ccc(=O)n(-c2cccc(C(=O)N3CCNCC3)c2)n1)c1cc(N)cc(C(F)(F)F)c1 [Example 250, N-[(1R)-1-[3-amino-5-(trifluoromethyl)phenyl]ethyl]-6-oxo-1-[3-(piperazine-1-carbonyl)phenyl]pyridazine-3-carboxamide] | < 1000
7 | C[C@@H](NC(=O)c1ccc(=O)n(-c2ccc(F)cc2F)n1)c1cc(N)cc(C(F)(F)F)c1 [Example 362, N-[(1R)-1-[3-amino-5-(trifluoromethyl)phenyl]ethyl]-1-(2,4-difluorophenyl)-6-oxo-pyridazine-3-carboxamide] | < 1000
8 | CNCc1ccccc1-c1ccc([C@@H](C)NC(=O)c2ccc(=O)n(-c3ccc(F)cc3F)n2)s1 [Example 398, (R)-1-(2,4-difluorophenyl)-N-(1-(5-(2-((methylamino)methyl)phenyl)thiophenyl-2-yl)ethyl)-6-oxo-1,6-dihydropyridazine-3-carboxamide] | < 1000
9 | CNCc1ccc(F)cc1-c1ccc([C@@H](C)NC(=O)c2ccc(=O)n(-c3cccc(-c4cnnn4C)c3)n2)s1 [Example 413] | < 1000
10 | C[C@@H](NC(=O)c1ccc(=O)n(-c2cccc(-c3ncnn3C)c2)n1)c1cc(N)cc(C(F)(F)F)c1 [Example 328, N-[(1R)-1-[3-amino-5-(trifluoromethyl)phenyl]ethyl]-1-[3-(2-methyl-1,2,4-triazol-3-yl)phenyl]-6-oxo-pyridazine-3-carboxamide] | < 1000
11 | C[C@@H](NC(=O)c1ccc(=O)n(-c2cccc(C(=O)NCCN(C)C)c2)n1)c1cc(N)cc(C(F)(F)F)c1 [Example 251, N-[(1R)-1-[3-amino-5-(trifluoromethyl)phenyl]ethyl]-1-[3-[2-(dimethylamino)ethylcarbamoyl]phenyl]-6-oxo-pyridazine-3-carboxamide] | < 1000
12 | C[C@@H](NC(=O)c1nn(-c2cccnc2F)c(=O)c2ccsc12)c1cc(N)cc(C(F)(F)F)c1 [Example 311, N-[(1R)-1-[3-amino-5-(trifluoromethyl)phenyl]ethyl]-5-(2-fluoro-3-pyridyl)-4-oxo-thieno[2,3-d]pyridazine-7-carboxamide] | < 1000
13 | C[C@@H](NC(=O)c1ccc(=O)n(C)n1)c1cc(N)cc(C(F)(F)F)c1 [Example 228, N-[(1R)-1-[3-amino-5-(trifluoromethyl)phenyl]ethyl]-1-methyl-6-oxo-pyridazine-3-carboxamide] | < 1000
14 | C[C@@H](NC(=O)c1ccc(=O)n(-c2ccccc2F)n1)c1cccc(-n2ccc(=O)cc2)c1 [Example 304] | > 10000
15 | C[C@@H](NC(=O)c1nn(-c2ccccc2F)c(=O)cc1O)c1cc(N)cc(C(F)(F)F)c1 [Example 363, N-[(1R)-1-[3-amino-5-(trifluoromethyl)phenyl]ethyl]-1-(2-fluorophenyl)-4-hydroxy-6-oxo-pyridazine-3-carboxamide] | > 10000
16 | CNCc1ccc(F)cc1-c1ccc([C@@H](C)NC(=O)c2ccc(=O)n(-c3cccnc3OC)n2)s1 [Example 407] | < 1000
17 | C[C@@H](NC(=O)c1nn(-c2ccccc2)c(=O)cc1-c1ccccc1)c1cc(N)cc(C(F)(F)F)c1 [Example 368, N-[(1R)-1-[3-amino-5-(trifluoromethyl)phenyl]ethyl]-6-oxo-1,4-diphenyl-pyridazine-3-carboxamide] | < 1000
18 | C[C@@H](NC(=O)c1ccc(=O)n(Cc2ccccn2)n1)c1cc(N)cc(C(F)(F)F)c1 [Example 225, N-[(1R)-1-[3-amino-5-(trifluoromethyl)phenyl]ethyl]-6-oxo-1-(2-pyridylmethyl)pyridazine-3-carboxamide] | < 1000
19 | C[C@@H](NC(=O)c1ccc(=O)n(-c2cccnc2F)n1)c1ccc(-c2cc(F)ccc2CN)s1 [Example 404] | < 1000
20 | Cc1nnnn1-c1cccc(-n2nc(C(=O)N[C@H](C)c3cc(N)cc(C(F)(F)F)c3)ccc2=O)c1 [Example 373, N-[(1R)-1-[3-amino-5-(trifluoromethyl)phenyl]ethyl]-1-[3-(5-methyltetrazol-1-yl)phenyl]-6-oxo-pyridazine-3-carboxamide] | < 1000

Further lines, results first:

Row | IC50 [nM] | Structure (SMILES)
21 | < 1000 | C[C@@H](NC(=O)c1ccc(=O)n(-c2cccc(-c3cnnn3C)c2F)n1)c1cccc(C(F)(F)CO)c1F [Example 358, N-[(1R)-1-[3-(1,1-difluoro-2-hydroxy-ethyl)-2-fluoro-phenyl]ethyl]-1-[2-fluoro-3-(3-methyltriazol-4-yl)phenyl]-6-oxo-pyridazine-3-carboxamide]
22 | < 1000 | C[C@H](O)c1cccc(-n2nc(C(=O)N[C@H](C)c3cc(N)cc(C(F)(F)F)c3)ccc2=O)c1 [Example 174, N-[(1R)-1-[3-amino-5-(trifluoromethyl)phenyl]ethyl]-1-[3-[(1S)-1-hydroxyethyl]phenyl]-6-oxo-pyridazine-3-carboxamide]
23 | < 1000 | C[C@@H](NC(=O)c1ccc(=O)n(-c2cc(F)ccc2F)n1)c1cccc(C(F)(F)CO)c1F [Example 356, N-[(1R)-1-[3-(1,1-difluoro-2-hydroxy-ethyl)-2-fluoro-phenyl]ethyl]-1-(2,5-difluorophenyl)-6-oxo-pyridazine-3-carboxamide]
24 | < 1000 | CNCc1ccc(F)cc1-c1ccc([C@@H](C)NC(=O)c2ccc(=O)n(-c3ccccc3F)c2)s1 [Example 287, N-[(1R)-1-[5-[5-fluoro-2-(methylaminomethyl)phenyl]-2-thienyl]ethyl]-1-(2-fluorophenyl)-6-oxo-pyridine-3-carboxamide]
25 | < 1000 | C[C@@H](NC(=O)c1ccc(=O)n(-c2ccccc2F)n1)c1cccc(C(F)(F)CN(C)C)c1F [Example 257, N-[(1R)-1-[3-[2-(dimethylamino)-1,1-difluoro-ethyl]-2-fluorophenyl]ethyl]-1-(2-fluorophenyl)-6-oxo-pyridazine-3-carboxamide]
26 | > 10000 | C[C@@H](NC(=O)c1nn(-c2ccccc2F)c(=O)cc1O)c1cccc(C(F)(F)CO)c1F [Example 365, N-[(1R)-1-[3-(1,1-difluoro-2-hydroxy-ethyl)-2-fluoro-phenyl]ethyl]-1-(2-fluorophenyl)-4-hydroxy-6-oxo-pyridazine-3-carboxamide]
27 | < 1000 | COc1ccc(-n2cc(C(=O)N[C@H](C)c3cccc(C(F)(F)CO)c3F)ccc2=O)cc1 [Example 203, N-[(1R)-1-[3-(1,1-difluoro-2-hydroxy-ethyl)-2-fluoro-phenyl]ethyl]-1-(4-methoxyphenyl)-6-oxo-pyridine-3-carboxamide]
28 | < 1000 | C[C@@H](NC(=O)c1ccc(=O)n(-c2cnn(C)c2)c1)c1cccc(C(F)(F)CO)c1F [Example 164, N-[(1R)-1-[3-(1,1-difluoro-2-hydroxy-ethyl)-2-fluoro-phenyl]ethyl]-1-(1-methylpyrazol-4-yl)-6-oxo-pyridine-3-carboxamide]
